# Experimental data reported in patent US20260116910A1, “POLYCYCLIC COMPOUNDS AND METHODS THEREOF” (HEPAITECH (BEIJING) BIOPHARMA TECHNOLOGY CO., LTD., priority 2021, published 2026).
# Where “and” joins values, the source holds several entries; their conditions need not be identical. Equal entries are not always repeated. Where two headings read alike, the source gives them in different places.
# How the values were obtained:
# [1] = target: MRGPRX4 (Homo sapiens, UniProt Q96LA9); assay: MRGPRX4 activation, Fluo-8 Ca2+ FLIPR assay in HEK293T cells stably expressing MRGPRX4; format: cell-based; design: key to MRGPRX4 activation, Average / MRGPRX4 activation, Ave.: fluorescence change dF/F0; settings: for EC50: MRGPRX4 activation, Ca2+ fluorescence, no activation in tested range reported as III, read-out: Activity (EC50 μM)
# Procedure, shortened: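 Cells seeded overnight to >95% confluence, loaded 40-60 min at room temperature with 2 μM Fluo-8 AM, then kept in HHBS. Baseline read 30 s, compound added, signal followed 150 s more.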
# [2] = target: T1, human FXR (NR1H4) (Homo sapiens, UniProt Q96RI1); assay: Human FXR (NR1H4) agonist assessment, FXRE-NanoLuc reporter in HEK293T cells; format: cell-based; settings: for EC50: read-out: EC50
# T1 sequence (Q96RI1 1-476 isoform Q96RI1-1): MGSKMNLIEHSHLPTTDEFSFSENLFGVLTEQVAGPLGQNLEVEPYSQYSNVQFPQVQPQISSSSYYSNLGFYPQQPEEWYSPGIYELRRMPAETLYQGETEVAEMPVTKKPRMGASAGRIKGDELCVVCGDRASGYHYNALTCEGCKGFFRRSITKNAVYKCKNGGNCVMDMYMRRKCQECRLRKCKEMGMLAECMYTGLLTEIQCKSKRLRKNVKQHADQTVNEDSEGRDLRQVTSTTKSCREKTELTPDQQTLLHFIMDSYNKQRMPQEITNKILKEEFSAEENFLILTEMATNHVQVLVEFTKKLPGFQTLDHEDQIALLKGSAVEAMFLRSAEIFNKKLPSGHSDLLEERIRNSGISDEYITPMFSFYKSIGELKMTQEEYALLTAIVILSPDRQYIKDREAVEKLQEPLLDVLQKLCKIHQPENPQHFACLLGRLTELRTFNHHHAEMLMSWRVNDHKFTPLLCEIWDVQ
# Procedure, shortened: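 HEK293T cells stably expressing human FXR with an FXRE-NanoLuc reporter were treated with compounds for 24 hr at 37 °C, with 0.01% DMSO as negative control. Medium was read for luminescence after 5 min with coelenterazine. EC50 was fitted by sigmoid to concentration-response data.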
# [3] = FXR activation, HEK293T FXRE-NanoLuc reporter, 24 hr
# Sequence of MRGPRX4 (Q96LA9 whole entry): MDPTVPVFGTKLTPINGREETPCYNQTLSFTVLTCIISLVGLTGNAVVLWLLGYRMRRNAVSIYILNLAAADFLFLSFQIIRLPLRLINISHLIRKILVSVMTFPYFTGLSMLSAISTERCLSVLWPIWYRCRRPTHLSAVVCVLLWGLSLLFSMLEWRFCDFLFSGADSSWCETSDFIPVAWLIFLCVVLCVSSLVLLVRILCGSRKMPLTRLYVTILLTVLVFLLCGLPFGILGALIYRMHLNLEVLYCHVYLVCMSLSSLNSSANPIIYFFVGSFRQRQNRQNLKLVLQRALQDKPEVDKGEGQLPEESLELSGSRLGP
Compound,"MRGPRX4 activation, Average ([1]; E3-9, Conc. (Log[M]) −4.0)","MRGPRX4 activation, Average ([1]; E3-9, Conc. (Log[M]) −4.5)","MRGPRX4 activation, Average ([1]; E3-9, Conc. (Log[M]) −5.0)","MRGPRX4 activation, Average ([1]; E3-9, Conc. (Log[M]) −5.4)","MRGPRX4 activation, Average ([1]; E3-9, Conc. (Log[M]) −5.9)","MRGPRX4 activation, Average ([1]; E3-9, Conc. (Log[M]) −6.4)","MRGPRX4 activation, Average ([1]; E3-9, Conc. (Log[M]) −6.9)","MRGPRX4 activation, Average ([1]; E3-9, Conc. (Log[M]) −7.3)","MRGPRX4 activation, Average ([1]; E3-9, Conc. (Log[M]) −7.8)","MRGPRX4 activation, Average ([1]; E3-9, Conc. (Log[M]) −8.3)",EC50 [1],"Efficacy (maximum measured induction of NanoLuc, normalized to CDCA set as 100%) [2, 3]","EC50 [2, 3]",also measured
CC[C@H]1[C@@H](O)[C@@H]2[C@H](CC[C@]3(C)[C@@H]([C@H](C)CCNC(=O)NS(=O)(=O)c4cc(F)ccc4F)CC[C@@H]23)[C@@]2(C)CC[C@H](F)C[C@@H]12 [9-2],0.035,0.001,0.002,0.019,0.018,0.018,0.014,0.019,0.016,0.019,50 to 100 µM,B (300%<efficacy <=400%),< 1 µM,"MRGPRX4 activation, fluorescence change (dF/F0), Average ([1]; Conc. (Log[M]) −4): 0.655; MRGPRX4 activation, fluorescence change (dF/F0), Average ([1]; Conc. (Log[M]) −4.5): 0.162; MRGPRX4 activation, fluorescence change (dF/F0), Average ([1]; Conc. (Log[M]) −5): 0.011; MRGPRX4 activation, fluorescence change (dF/F0), Average ([1]; Conc. (Log[M]) −5.5): −0.068; MRGPRX4 activation, fluorescence change (dF/F0), Average ([1]; Conc. (Log[M]) −6): −0.030; MRGPRX4 activation, fluorescence change (dF/F0), Average ([1]; Conc. (Log[M]) −7): −0.029; MRGPRX4 activation, fluorescence change (dF/F0), Average ([1]; Conc. (Log[M]) −8): −0.035; MRGPRX4 activation, fluorescence change (dF/F0), Average ([1]; Conc. (Log[M]) −9): −0.072"
CC[C@H]1[C@@H](O)[C@@H]2[C@H](CC[C@]3(C)[C@@H]([C@H](C)CCNC(=O)NS(=O)(=O)c4cc(F)cc(F)c4)CC[C@@H]23)[C@@]2(C)CC[C@H](F)C[C@@H]12 [9-3],0.006,0.004,0.018,0.019,0.019,0.016,0.014,0.018,0.016,0.016,> 100 µM,B (300%<efficacy <=400%),< 1 µM,
CC[C@H]1[C@@H](O)[C@@H]2[C@H](CC[C@]3(C)[C@@H]([C@H](C)CCNC(=O)NS(=O)(=O)c4cccs4)CC[C@@H]23)[C@@]2(C)CC[C@H](F)C[C@@H]12 [9-4],−0.003,0.004,0.014,0.019,0.019,0.018,0.019,0.021,0.018,0.019,> 100 µM,C (100%<efficacy <=300%),< 1 µM,
CC[C@H]1[C@@H](O)[C@H]2[C@@H]3CC[C@](C)([C@H](C)CCNC(=O)NS(=O)(=O)C[C@]45CCC(CC4=O)C5(C)C)[C@H]3CC[C@@H]2[C@@]2(C)CC[C@H](F)C[C@@H]12 [9-5],0.014,0.016,0.023,0.023,0.018,0.019,0.021,0.019,0.021,0.021,> 100 µM,,< 1 µM,"Efficacy (maximum measured induction of NanoLuc, normalized to CDCA set as 100%) [2]: C (key: A: efficacy >400%; B: 300%<efficacy <=400%; C: 100%<efficacy <=300%; D: efficacy <=100%)"
CC[C@H]1[C@@H](O)[C@@H]2[C@H](CC[C@]3(C)[C@@H]([C@H](C)CCNC(=O)NS(=O)(=O)c4ccc(Br)cc4OC(F)(F)F)CC[C@@H]23)[C@@]2(C)CC[C@H](F)C[C@@H]12 [9-6],0.021,0.014,0.016,0.010,0.019,0.018,0.016,0.014,0.012,0.016,> 100 µM,C (100%<efficacy <=300%),< 1 µM,
CC[C@H]1[C@@H](O)[C@@H]2[C@H](CC[C@]3(C)[C@@H]([C@H](C)CCC(=O)NS(C)(=O)=O)CC[C@@H]23)[C@@]2(C)CC[C@H](F)C[C@@H]12 [9-7],,,,,,,,,,,> 100 µM,A (efficacy >400%),1 to 10 µM,"MRGPRX4 activation, fluorescence change (dF/F0), Average ([1]; Conc. (Log[M]) −4.5): 0.022 and 0.037"
CC[C@H]1[C@@H](O)[C@@H]2[C@H](CC[C@]3(C)[C@@H]([C@H](C)CCNC(=O)NS(=O)(=O)c4ccc(C(C)(C)CF)cc4)CC[C@@H]23)[C@@]2(C)CCC(F)(F)C[C@@H]12 [10-1],0.025,0.016,0.021,0.018,0.019,0.016,0.018,0.016,0.008,0.010,> 100 µM,B (300%<efficacy <=400%),< 1 µM,
CC[C@H]1[C@@H](O)[C@@H]2[C@H](CC[C@]3(C)[C@@H]([C@H](C)CCNC(=O)NS(=O)(=O)c4cc(F)ccc4F)CC[C@@H]23)[C@@]2(C)CCC(F)(F)C[C@@H]12 [10-2],0.006,0.004,0.010,0.018,0.018,0.019,0.021,0.019,0.018,0.018,> 100 µM,C (100%<efficacy <=300%),< 1 µM,
CC[C@H]1[C@@H](O)[C@@H]2[C@H](CC[C@]3(C)[C@@H]([C@H](C)CCNC(=O)NS(=O)(=O)c4cc(F)cc(F)c4)CC[C@@H]23)[C@@]2(C)CCC(F)(F)C[C@@H]12 [10-3],0.010,0.004,0.014,0.016,0.023,0.018,0.023,0.021,0.012,0.018,> 100 µM,C (100%<efficacy <=300%),< 1 µM,
